# Laboratory results: patent US20240024273A1, “TOPICAL ADMINISTRATION OF 2-(DIETHYLAMINO)ETHYL 2-(4-ISOBUTYLPHENYL)PROPRIONATE FOR TREATMENT OF DISEASES” (TECHFIELDS PHARMA CO., LTD., priority 2020, published 2024)
# System: Mild to Moderate Osteoarthritis of the Knee
# Test: Phase 2 study: WOMAC (VAS) pain subscale score, target knee
# Type: in vivo, human
# Conditions: for WOMAC Pain Subscale Score, Avg.: Avg. of all patients; for WOMAC Pain Subscale Score, Avg. / WOMAC Pain Subscale Score: blinded, High Dose (8 spray/knee, 35 mg/knee) Cohort; for WOMAC Pain Subscale Score, cohort Avg.: low dose cohort 8.75 mg/knee BID, blinded (active + placebo), Day 1 Avg. 59.8; for difference of LS mean (8.75 mg-control), change from baseline in WOMAC pain subscale score / Change from baseline in WOMAC pain subscale score, LS mean (95% ci): Group A, 8.75 mg/knee; for difference of LS mean (8.75 mg-control), change from baseline in WOMAC pain subscale score / difference of LS mean (testing Drug-control), change from baseline in WOMAC pain subscale score: bid vs placebo; for Change from baseline in WOMAC pain subscale score, LS mean (95% ci) / Change from baseline in WOMAC pain subscale score, LS mean: bid; for difference of LS mean (testing Drug-control), change from baseline in WOMAC pain subscale score / Change from baseline in WOMAC pain subscale score, LS mean: Group C, 35 mg/knee; for WOMAC Pain Subscale Score: individual patient
# From the text: This is a Phase 2, multicenter, randomized, double blind (within dose), placebo controlled, parallel group, proof of concept, and dose range finding study to evaluate the efficacy, safety, and PK of 2-(diethylamino)ethyl 2-(4-isobutylphenyl)propionate hydrochloride spray in adult subjects with clinically symptomatic mild to moderate OA of the knee. For subjects with bilateral knee pain, both knees will be treated, but the most symptomatic knee (i.e., the most painful knee as measured by the Western Ontario and McMaster University Osteoarthritis Index [WOMAC® 3.1] pain subscale score at Screening) will be designated as the target knee for efficacy analyses. For subjects with unilateral knee pain, only the symptomatic (target) knee will be treated.
# After a Screening Period of up to 3 weeks and radiographic evaluation of the target knee joint space, a subject will be randomly assigned to 1 of 3 treatment groups in a 1:1:1 ratio with a 2:1 ratio of active:placebo within each treatment group (ie, 2 subjects to active treatment and 1 subject to placebo): • Group A: 8.75 mg 2-(diethylamino)ethyl 2-(4-isobutylphenyl)propionate/knee (2 sprays/knee, one spray to the medial surface and one spray to the lateral surface of the knee), twice daily (BID, approximately every 12 hours; n=50) or placebo (2 sprays/knee), BID (approximately every 12 hours; n=25) for a total of 4 sprays per knee per day; • Group B: 17.5 mg 2-(diethylamino)ethyl 2-(4-isobutylphenyl)propionate/knee (4 sprays/knee, one spray to the medial surface and one spray to the lateral surface of the knee, and one spray to front and one spray to the back of the knee), BID (approximately every 12 hours; n=50) or placebo (4 sprays/knee), BID (approximately every 12 hours; n=25) for a total of 8 sprays per knee per day; • Group C: 35 mg 2-(diethylamino)ethyl 2-(4-isobutylphenyl)propionate/knee (8 sprays/knee, each spray is to be applied to a different non-overlapping area around the knee, and the areas are to be uniformly distributed around the knee), BID (approximately every 12 hours; n=50) or placebo (8 sprays/knee), BID (approximately every 12 hours; n=25) for a total of 16 sprays per knee per day.
# The VAS version of the WOMAC will be used for the Primary and Secondary Efficacy Endpoints. Efficacy endpoints will be assessed at Screening and Baseline (Day 1) and at the Week 2, Week 4, Week 8, and Week 12/EOS visits.
# The Primary Efficacy Endpoint is the change from Baseline in the WOMAC (VAS) pain subscale score for the target knee at […] of treatment.
# 3.9.2. Secondary Efficacy Endpoints: • 1. Change from Baseline in the WOMAC (VAS) pain subscale score for the target knee at 2, 4, and 8 weeks of treatment; • 2. Change from Baseline in the WOMAC (VAS) stiffness subscale scores for the target knee and WOMAC (VAS) functional ability subscale scores at 2, 4, 8, and 12 weeks of treatment; • 3. Change from Baseline in the overall WOMAC (VAS) score at 2, 4, 8, and 12 weeks of treatment.
# The Primary Efficacy Endpoint is change from Baseline in the WOMAC (VAS) pain subscale score for the target knee at 4 weeks of treatment, and will be analyzed using an analysis of covariance (ANCOVA). Treatment will be included as a fixed class effect and WOMAC Baseline pain subscale score as covariates. The primary comparisons of interest will be the difference between active Group A (8.75 mg 2-(diethylamino)ethyl 2-(4-isobutylphenyl)propionate/knee) and combined placebo, active Group B (17.5 mg 2-(diethylamino)ethyl 2-(4-isobutylphenyl)propionate/knee) and combined placebo, and active Group C (35 mg 2-(diethylamino)ethyl 2-(4-isobutylphenyl)propionate/knee) and combined placebo. […]
compound,measurement,setting,value
CCN(CC)CCOC(=O)C(C)c1ccc(CC(C)C)cc1 (stereo not drawn) [2-(diethylamino)ethyl 2-(4-isobutylphenyl)propionate],reduction of pain WOMAC from baseline to week 12,5 patients on second batch active drug kits,81-98%
same,"WOMAC Pain Subscale Score, Avg.",Day 1,59.2
same,"WOMAC Pain Subscale Score, Avg.",Follow-up,35.2
same,"WOMAC Pain Subscale Score, Avg.",Week 2,46.6
same,"WOMAC Pain Subscale Score, Avg.",Week 4,41.5
same,"WOMAC Pain Subscale Score, Avg.",Week 8,37.0
same,"WOMAC Pain Subscale Score, Avg.",Week 12,33.8
same,"WOMAC Pain Subscale Score, cohort Avg.",Follow-up,39.7
same,"difference of LS mean (8.75 mg-control), change from baseline in WOMAC pain subscale score",Week 2,6.7 mm
same,"difference of LS mean (8.75 mg-control), change from baseline in WOMAC pain subscale score",Week 4,10.5 mm
same,"difference of LS mean (8.75 mg-control), change from baseline in WOMAC pain subscale score",Week 8,7.9 mm
same,"difference of LS mean (8.75 mg-control), change from baseline in WOMAC pain subscale score",Week 12/EOS,8.6 mm
same,"Change from baseline in WOMAC pain subscale score, LS mean (95% ci)",Week 2,"−7.5 (−13.3, −1.7) mm"
same,"Change from baseline in WOMAC pain subscale score, LS mean (95% ci)",Week 4,"−10.6 (−17.1, −4.1) mm"
same,"Change from baseline in WOMAC pain subscale score, LS mean (95% ci)",Week 8,"−15.7 (−22.5, −8.8) mm"
same,"Change from baseline in WOMAC pain subscale score, LS mean (95% ci)",Week 12/EOS,"−16.1 (−23.6, −8.6) mm"
same,"difference of LS mean (testing Drug-control), change from baseline in WOMAC pain subscale score",Week 2,−11.5 mm
same,"difference of LS mean (testing Drug-control), change from baseline in WOMAC pain subscale score",Week 4,−12.8 mm
same,"difference of LS mean (testing Drug-control), change from baseline in WOMAC pain subscale score",Week 8,−6.0 mm
same,"difference of LS mean (testing Drug-control), change from baseline in WOMAC pain subscale score",Week 12/EOS,−4.1 mm
same,"Change from baseline in WOMAC pain subscale score, LS mean",Week 2,−15.6 mm
same,"Change from baseline in WOMAC pain subscale score, LS mean",Week 4,−21.2 mm
same,"Change from baseline in WOMAC pain subscale score, LS mean",Week 8,−24.0 mm
same,"Change from baseline in WOMAC pain subscale score, LS mean",Week 12/EOS,−26.9 mm
same,"WOMAC Pain Subscale, WOMAC VAS Score","Patient 1056, second batch active drug kits, Day 1",51.8 mm
same,"WOMAC Pain Subscale, WOMAC VAS Score","Patient 1056, second batch active drug kits, Follow Up",10.0 mm
same,"WOMAC Pain Subscale, WOMAC VAS Score","Patient 1056, second batch active drug kits, Week 2",31.0 mm
same,"WOMAC Pain Subscale, WOMAC VAS Score","Patient 1056, second batch active drug kits, Week 4",22.6 mm
same,"WOMAC Pain Subscale, WOMAC VAS Score","Patient 1056, second batch active drug kits, Week 8",28.0 mm
same,"WOMAC Pain Subscale, WOMAC VAS Score","Patient 1056, second batch active drug kits, Week 12",12.0 mm
same,"WOMAC Pain Subscale, WOMAC VAS Score","Patient 1064, second batch active drug kits, Day 1",32.6 mm
same,"WOMAC Pain Subscale, WOMAC VAS Score","Patient 1064, second batch active drug kits, Follow Up",1.6 mm
same,"WOMAC Pain Subscale, WOMAC VAS Score","Patient 1064, second batch active drug kits, Week 2",21.6 mm
same,"WOMAC Pain Subscale, WOMAC VAS Score","Patient 1064, second batch active drug kits, Week 4",1.8 mm
same,"WOMAC Pain Subscale, WOMAC VAS Score","Patient 1064, second batch active drug kits, Week 8",1.0 mm
same,"WOMAC Pain Subscale, WOMAC VAS Score","Patient 1064, second batch active drug kits, Week 12",0 mm
same,"WOMAC Pain Subscale, WOMAC VAS Score","Patient 1535, second batch active drug kits, Day 1",40.4 mm
same,"WOMAC Pain Subscale, WOMAC VAS Score","Patient 1535, second batch active drug kits, Follow Up",0.0 mm
same,"WOMAC Pain Subscale, WOMAC VAS Score","Patient 1535, second batch active drug kits, Week 2",2.8 mm
same,"WOMAC Pain Subscale, WOMAC VAS Score","Patient 1535, second batch active drug kits, Week 4",2.6 mm
same,"WOMAC Pain Subscale, WOMAC VAS Score","Patient 1535, second batch active drug kits, Week 8",4.0 mm
same,"WOMAC Pain Subscale, WOMAC VAS Score","Patient 1535, second batch active drug kits, Week 12",0.6 mm
same,"WOMAC Pain Subscale, WOMAC VAS Score","Patient 1539, second batch active drug kits, Day 1",63.0 mm
same,"WOMAC Pain Subscale, WOMAC VAS Score","Patient 1539, second batch active drug kits, Follow Up",5.0 mm
same,"WOMAC Pain Subscale, WOMAC VAS Score","Patient 1539, second batch active drug kits, Week 2",47.6 mm
same,"WOMAC Pain Subscale, WOMAC VAS Score","Patient 1539, second batch active drug kits, Week 4",48.2 mm
same,"WOMAC Pain Subscale, WOMAC VAS Score","Patient 1539, second batch active drug kits, Week 8",1.8 mm
same,"WOMAC Pain Subscale, WOMAC VAS Score","Patient 1539, second batch active drug kits, Week 12",9.4 mm
same,"WOMAC Pain Subscale, WOMAC VAS Score","Patient 9032, second batch active drug kits, Day 1",16.6 mm
same,"WOMAC Pain Subscale, WOMAC VAS Score","Patient 9032, second batch active drug kits, Follow Up",3.0 mm
same,"WOMAC Pain Subscale, WOMAC VAS Score","Patient 9032, second batch active drug kits, Week 2",11.2 mm
same,"WOMAC Pain Subscale, WOMAC VAS Score","Patient 9032, second batch active drug kits, Week 4",6.2 mm
same,"WOMAC Pain Subscale, WOMAC VAS Score","Patient 9032, second batch active drug kits, Week 8",4.4 mm
same,"WOMAC Pain Subscale, WOMAC VAS Score","Patient 9032, second batch active drug kits, Week 12",3.2 mm
same,"WOMAC Pain Subscale Score, cohort Avg.",Week 2,48.6
same,"WOMAC Pain Subscale Score, cohort Avg.",Week 4,42.8
same,"WOMAC Pain Subscale Score, cohort Avg.",Week 8,38.4
same,"WOMAC Pain Subscale Score, cohort Avg.",Week 12,38.2
same,WOMAC Pain Subscale Score,Day 1,59.4
same,WOMAC Pain Subscale Score,Follow-up,67.0
